Data: patent US5972958A, “4-aminoalkoxy-1,3-dihydro-benzoimidazol-2-thiones” (American Home Products Corporation, priority 1998, dated 1999)

Columns and labels:
dopamine D2 receptor [1] = target: T1, dopamine D2 receptor (Rattus norvegicus, UniProt P61169); test: Affinity for the dopamine D-2 receptor, 3H-spiroperidol (D2 Spiper) binding in homogenized limbic brain tissue; design: homogenized limbic brain tissue; from tissue; host or cells: limbic brain tissue (homogenate); conditions: low-affinity agonist state
T1 sequence (P61169 whole entry): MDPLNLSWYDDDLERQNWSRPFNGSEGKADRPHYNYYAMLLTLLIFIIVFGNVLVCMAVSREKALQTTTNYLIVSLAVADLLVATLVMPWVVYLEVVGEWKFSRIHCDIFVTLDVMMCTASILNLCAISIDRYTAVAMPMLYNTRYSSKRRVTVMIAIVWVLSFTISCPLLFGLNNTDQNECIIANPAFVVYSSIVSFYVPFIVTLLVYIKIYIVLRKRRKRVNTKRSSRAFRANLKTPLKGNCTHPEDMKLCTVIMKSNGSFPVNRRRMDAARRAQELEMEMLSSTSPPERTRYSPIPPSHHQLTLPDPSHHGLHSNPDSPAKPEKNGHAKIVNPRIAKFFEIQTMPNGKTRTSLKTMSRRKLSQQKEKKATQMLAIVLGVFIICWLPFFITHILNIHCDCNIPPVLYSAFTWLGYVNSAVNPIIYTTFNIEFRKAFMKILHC
Method: High affinity for the dopamine D-2 receptor was established by the standard experimental test procedure of Fields, et al., Brain Res., 136, 578 (1977) and Yamamura et al., eds., Neurotransmitter Receptor Binding, Raven Press, N.Y. (1978) wherein homogenized limbic brain tissue is incubated with ^3 H-spiroperidol (Spiper.) and various concentrations of test compound, filtered and washed and shaken with Hydrofluor scintillation cocktail (National Diagnostics) and counted in a Packard 460 CD scintillation counter.

dopamine D2 receptor [2] = target: T1, dopamine D2 receptor; test: Affinity for the dopamine autoreceptor, 3H-quinpirole (D2 Quin.) binding in homogenized rat striatal brain tissue; design: homogenized rat striatal brain tissue; from tissue; host or cells: rat striatal brain tissue (homogenate); conditions: high-affinity agonist state
Method: Affinity for the dopamine autoreceptor was established by a modification of the standard experimental test procedure of Seemen and Schaus, European Journal of Pharmacology 203: 105-109, 1991, wherein homogenized rat striatal brain tissue is incubated with ^3 H-quinpirole (Quin.) and various concentrations of test compound, filtered and washed and counted in a Betaplate scintillation counter.

| SMILES | IC50 (dopamine D2 receptor [1]) [nM] | IC50 (dopamine D2 receptor [2]) [nM] |
| --- | --- | --- |
| CC(C)(C)c1ccc(CNCCOc2cccc3[nH]c(=S)[nH]c23)cc1 [Example 5, 4-[2-(4-tert-Butyl-benzylamino)-ethoxy]-1,3-dihydro-benzoimidazole-2-thione] | 6.87 | 0.82 |
| Sc1nc2c(OCCNCc3ccccc3)cc(Cl)cc2[nH]1 [Example 7, 4-(2-Benzylamino-ethoxy)-6-chloro-1,3-dihydro-benzoimidazole-2-thione] | 57 | 0.39 |
| S=c1[nH]c2cc(Cl)cc(OCCNCc3cccs3)c2[nH]1 [Example 8, 6-Chloro-4-{2-[(thiophen-2-ylmethyl)-amino]-ethoxy}-1,3-dihydro-benzoimidazole-2-thione] | 88 | 0.37 |
| S=c1[nH]c2cc(Cl)cc(OCCNCc3ccsc3)c2[nH]1 [Example 9, 6-Chloro-4-{2-[(thiophen-3-ylmethyl)-amino]-ethoxy}-1,3-dihydro-benzoimidazole-2-thione] | 85 | 0.18 |
| S=c1[nH]c2cccc(OCCN3CCc4ccccc4C3)c2[nH]1 [Example 10, 4-[2-(3,4-Dihydro-1H-isoquinolin-2-yl)-ethoxy]-1,3-dihydro-benzoimidazole-2-thione] | 234 | 2.67 |

Second part, the compound after the results:

| IC50 (dopamine D2 receptor [1]) [nM] | IC50 (dopamine D2 receptor [2]) [nM] | SMILES |
| --- | --- | --- |
| 33.4 | 0.36 | S=c1[nH]c2cccc(OCCNCc3ccccc3)c2[nH]1 [Example 1, 4-(2-Benzylamino-ethoxy)-1,3-dihydro-benzoimidazol-2-thione] |
| 37.7 | 0.42 | Cc1ccc(CNCCOc2cccc3[nH]c(=S)[nH]c23)cc1 [Example 2, 4-[2-(4-Methyl-benzylamino)-ethoxy]-1,3-dihydro-benzoimidazole-2-thione] |
| 1190 | 14.9 | S=c1[nH]c2cccc(OCCCNCc3ccccc3)c2[nH]1 [Example 3] |
| 36.9 | 0.43 | S=c1[nH]c2cccc(OCCNCc3cccc4ccccc34)c2[nH]1 [Example 4, 4-{2-[(Naphthalen-1-ylmethyl)-amino]-ethoxy}-1,3-dihydro-benzoimidazole-2-thione] |
| 88 | 0.21 | S=c1[nH]c2cccc(OCCNCc3ccc(Cl)cc3)c2[nH]1 [Example 6, 4-[2-(4-Chloro-benzylamino)-ethoxy]-1,3-dihydro-benzoimidazole-2-thione] |
